Reference: EP4755888A1 (ILAb Co., Ltd., priority 2023, dated 2025)

Target: PD-1/PD-L1 (Homo sapiens, UniProt Q9NZQ7)
Experiment: TR-FRET PD-1/PD-L1 binding inhibition at the molecular level (free proteins)
Conditions: Tag1-PD-L1 and Tag2-PD-1 proteins, twelve concentrations from 200 nM, 2 hours at room temperature, read-out: FRET assay (IC50)
In short: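 HTRF read-out at 665/620 nm after 2 h at room temperature. Detection used anti-Tag1 Eu cryptate plus anti-Tag2 XL665 antibodies. Tagged PD-L1 and PD-1 proteins were pre-mixed with compound across twelve […] 1:2 dilutions starting at 200 nM.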

Sequence of PD-1/PD-L1 (Q9NZQ7 19-238 limits assumed): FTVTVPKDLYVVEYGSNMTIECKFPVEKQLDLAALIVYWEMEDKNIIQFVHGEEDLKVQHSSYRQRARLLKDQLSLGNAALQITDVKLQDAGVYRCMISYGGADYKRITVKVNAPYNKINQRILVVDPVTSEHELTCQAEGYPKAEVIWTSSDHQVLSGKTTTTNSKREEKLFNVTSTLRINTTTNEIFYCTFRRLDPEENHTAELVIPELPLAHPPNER

Row | Structure (SMILES) | IC50 [nM]
1 | CC(C)(NC1CCCn2nc(C(=O)Nc3cccc(-c4cccc(Nc5nccc6cc(CN7CC[C@@H](O)C7)cnc56)c4Cl)c3Cl)cc21)C(=O)O (stereo partly drawn) [Compound 27, 2-((2-((2,2'-dichloro-3'-((3-(((R)-3-hydroxypyrrolidin-1-yl)methyl)-1,7-naphthyridin-8-yl)amino)-[1,1'-biphenyl]-3-yl)carbamoyl)-4,5,6,7-tetrahydropyrazolo[1,5-a]pyridin-4-yl)amino)-2-methylpropanoic acid] | 10 to 100
2 | Cc1c(NC(=O)c2cc3n(n2)CCCC3=O)cccc1-c1cccc(NC(=O)c2cc3n(n2)CCCC3NCCO)c1C (stereo not shown) [Compound 3, N-(2,2'-dimethyl-3'-(4-oxo-4,5,6,7-tetrahydropyrazolo[1,5-a]pyridine-2-carboxamido)-[1,1'-biphenyl]-3-yl)-4-((2-hydroxyethyl)amino)-4,5,6,7-tetrahydropyrazolo[1,5-a]pyridine-2-carboxamide] | < 10
3 | Cn1c(C(=O)Nc2cccc(-c3cccc(NC(=O)c4cc5n(n4)CCCC5N4CCC(O)CC4)c3Cl)c2Cl)nc2c1CCN(CCC13CCC(C(=O)O)(CC1)C3)C2 (stereo not shown) [Compound 58, 4-(2-(2-((2,2'-dichloro-3'-(4-(4-hydroxypiperidin-1-yl)-4,5,6,7-tetrahydropyrazolo[1,5-a]pyridine-2-carboxamido)-[1,1'-biphenyl]-3-yl)carbamoyl)-1-methyl-6,7-dihydro-1H-imidazo[4,5-c]pyridin-5(4H)-yl)ethyl)bicyclo[2.2.1]heptane-1-carboxylic acid] | 10 to 100
4 | Cc1c(NC(=O)c2ccc(CN3CC[C@@H](O)C3)cn2)cccc1-c1cccc(NC(=O)c2cc3n(n2)CCCC3NC(C)(C)C(=O)O)c1C (stereo partly drawn) [Compound 99, 2-((2-((3'-(5-(((R)-3-hydroxypyrrolidin-1-yl)methyl)picolinamido)-2,2'-dimethyl-[1,1'-biphenyl]-3-yl)carbamoyl)-4,5,6,7-tetrahydropyrazolo[1,5-a]pyridin-4-yl)amino)-2-methylpropanoic acid] | < 10
5 | Cc1c(NC(=O)c2ccc(CNCCO)cn2)cccc1-c1cccc(NC(=O)c2cc3n(n2)CCCC3NCCO)c1C (stereo not shown) [Compound 74] | < 10
6 | CC(C)(O)C1CN(C2CCCn3nc(C(=O)Nc4cccc(-c5cccc(Nc6nccc7cc(CN8CC[C@@H](O)C8)cnc67)c5Cl)c4Cl)cc32)C1 (stereo partly drawn) [Compound 237, N-(2,2'-dichloro-3'-((3-(((R)-3-hydroxypyrrolidin-1-yl)methyl)-1,7-naphthyridin-8-yl)amino)-[1,1'-biphenyl]-3-yl)-4-(3-(2-hydroxypropan-2-yl)azetidin-1-yl)-4,5,6,7-tetrahydropyrazolo[1,5-a]pyridine-2-carboxamide] | 10 to 100
7 | COc1cc(-c2cccc(-c3cccc(NC(=O)c4cc5n(n4)CCC[C@H]5NCC(=O)O)c3Cl)c2Cl)cc(F)c1CNC[C@@H]1CCC(=O)N1 [Compound 250, 2-(((R)-2-((2,2'-dichloro-3"-fluoro-5"-methoxy-4"-(((((S)-5-oxopyrrolidin-2-yl)methyl)amino)methyl)-[1,1':3',1 "-terphenyl]-3-yl)carbamoyl)-4,5,6,7-tetrahydropyrazolo[1,5-a]pyridin-4-yl)amino)acetic acid] | 10 to 100
8 | CN[C@@H]1CCCn2nc(C(=O)Nc3cccc(-c4cccc(NC(=O)c5ccc(CN6CC[C@@H](O)C6)cn5)c4C)c3C)cc21 [Compound 349, (R)-N-(3'-(5-(((R)-3-hydroxypyrrolidin-1-yl)methyl)picolinamido)-2,2'-dimethyl-[1,1'-biphenyl]-3-yl)-4-(methylamino)-4,5,6,7-tetrahydropyrazolo[1,5-a]pyridine-2-carboxamide] | 10 to 100
9 | COc1cc(-c2cccc(-c3cccc(NC(=O)c4cc5n(n4)CCCC5O)c3Cl)c2Cl)cc(F)c1CNC[C@@H]1CCC(=O)N1 (stereo partly drawn) [Compound 119, N-(2,2'-dichloro-3"-fluoro-5"-methoxy-4"-(((((S)-5-oxopyrrolidin-2-yl)methyl)amino)methyl)-[1,1':3',1"-terphenyl]-3-yl)-4-hydroxy-4,5,6,7-tetrahydropyrazolo[1,5-a]pyridine-2-carboxamide] | 10 to 100
10 | Cc1c(NC(=O)c2ccc(CN3CC[C@@H](O)C3)cn2)cccc1-c1cccc(NC(=O)c2cc3n(n2)CCCC3NCC(=O)O)c1C (stereo partly drawn) [Compound 95, 2-((2-((3'-(5-(((R)-3-hydroxypyrrolidin-1-yl)methyl)picolinamido)-2,2'-dimethyl-[1,1'-biphenyl]-3-yl)carbamoyl)-4,5,6,7-tetrahydropyrazolo[1,5-a]pyridin-4-yl)amino)acetic acid] | < 10

More lines, now with the values ahead:

Row | IC50 [nM] | Structure (SMILES)
11 | < 10 | O=C(Nc1cccc(-c2cccc(NC(=O)c3ncc(CN4CC[C@@H](O)C4)cc3F)c2Cl)c1Cl)c1cc2n(n1)CCCC2N1CC[C@@H](C(=O)O)C1 (stereo partly drawn) [Compound 205, (3R)-1-(2-((2,2'-dichloro-3'-(3-fluoro-5-(((R)-3-hydroxypyrrolidin-1-yl)methyl)picolinamido)-[1,1'-biphenyl]-3-yl)carbamoyl)-4,5,6,7-tetrahydropyrazolo[1,5-a]pyridin-4-yl)pyrrolidine-3-carboxylic acid]
12 | 10 to 100 | Cc1c(NC(=O)c2cc3n(n2)CCC[C@@H]3N2CCC(C(=O)O)CC2)cccc1-c1cccc(Nc2nc(C(F)(F)F)nc3cc(CN4CC[C@@H](O)C4)cnc23)c1C [Compound 342, 1-((S)-2-((3'-((7-(((R)-3-hydroxypyrrolidin-1-yl)methyl)-2-(trifluoromethyl)pyrido[3,2-d]pyrimidin-4-yl)amino)-2,2'-dimethyl-[1,1'-biphenyl]-3-yl)carbamoyl)-4,5,6,7-tetrahydropyrazolo[1,5-a]pyridin-4-yl)piperidine-4-carboxylic acid]
13 | 10 to 100 | Cc1c(NC(=O)c2cc3n(n2)CCC[C@H]3N2CC[C@@H](O)C2)cccc1-c1cccc(Nc2nc(C(F)(F)F)nc3cc(CN4CC[C@@H](O)C4)cnc23)c1C [Compound 345]
14 | < 10 | Cc1c(Nc2nccc3cc(CN4CC[C@@H](O)C4)cnc23)cccc1-c1cccc(NC(=O)c2cc3n(n2)CCCC3N2CC[C@@H](C(=O)O)C2)c1Cl (stereo partly drawn) [Compound 33, (3R)-1-(2-((2-chloro-3'-((3-(((R)-3-hydroxypyrrolidin-1-yl)methyl)-1,7-naphthyridin-8-yl)amino)-2'-methyl-[1,1'-biphenyl]-3-yl)carbamoyl)-4,5,6,7-tetrahydropyrazolo[1,5-a]pyridin-4-yl)pyrrolidine-3-carboxylic acid]
15 | < 10 | Cc1c(Nc2nccc3cc(CN4CC[C@@H](O)C4)cnc23)cccc1-c1cccc(-c2cc3n(n2)CCCC3N2CC[C@@H](O)C2)c1C (stereo partly drawn) [Compound 177, (3R)-1-((8-((3'-(4-((R)-3-hydroxypyrrolidin-1-yl)-4,5,6,7-tetrahydropyrazolo[1,5-a]pyridin-2-yl)-2,2'-dimethyl-[1,1'-biphenyl]-3-yl)amino)-1,7-naphthyridin-3-yl)methyl)pyrrolidin-3-ol]
16 | 10 to 100 | CN[C@H]1CCCn2nc(C(=O)Nc3cccc(-c4cccc(Nc5nc(C(F)(F)F)nc6cc(CN7CC[C@@H](O)C7)cnc56)c4Cl)c3Cl)cc21 [Compound 352, (S)-N-(2,2'-dichloro-3'-((7-(((R)-3-hydroxypyrrolidin-1-yl)methyl)-2-(trifluoromethyl)pyrido[3,2-d]pyrimidin-4-yl)amino)-[1,1'-biphenyl]-3-yl)-4-(methylamino)-4,5,6,7-tetrahydropyrazolo[1,5-a]pyridine-2-carboxamide]
